Several values for one entry are separate records, joined by “and”; a condition that tells them apart may be missing. Identical values can stand only once. Like-named read-outs stand apart in the source and are kept apart here.
Experiments:
Format in all cases: cell-based
K. pneumoniae 6540 = assay: BLI potentiation MIC, K. pneumoniae 6540; details: no BLI, incubation 19 h
Description: (§1) MIC90 (μg/mL) is the lowest concentration of an antibiotic that will inhibit the visible growth of 90% of microorganisms after incubation as compared with a control group to which the antibiotic is not treated.
(§2) MIC values were measured by the broth microdilution method developed by the Clinical and Laboratory Standards Institute (CLSI) (see CLSI M07-A9, Methods for Dilution Antimicrobial Susceptibility Test for Bacteria that Grow Aerobically; Approved Standard-Ninth Edition (2012): CLSI, Villanova, Pa.). The in vitro antibacterial activity was measured with respect to the following 9 clinical isolates: P. aeruginosa (3 strains); K. pneumoniae (6 strains). The in vitro antibacterial activity of selected compounds was measured with respect to the following 15 clinical isolates: K. pneumoniae (15 strains).

E. coli K0519020 = assay: MIC of strain used for extraction of enzymes, E. coli K0519020 (CTX-M-15, TEM-1, OXA-1, AmpC (NC_000913)); details: Escherichia coli, K0519020, no BLI
K. pneumoniae 5971(KOX) = assay: BLI potentiation MIC, K. pneumoniae 5971(KOX); details: no BLI, incubation 19 h; for MIC: Klebsiella pneumoniae, 19 h
Description: as §1, §2

K. pneumoniae 3784 = assay: BLI potentiation MIC, K. pneumoniae 3784 (SHV-11, SHV-12, DHA-1); details: no BLI, incubation 19 h; for MIC: Klebsiella pneumoniae, 3784, 19 h
Description: as §1, §2

K. pneumoniae ATCC700603 = assay: BLI potentiation MIC, K. pneumoniae ATCC700603 (SHV-3); details: no BLI, incubation 19 h
Description: as §1, §2

K. pneumoniae 6839 = assay: BLI potentiation MIC, K. pneumoniae 6839 (SHV-11, SHV-12, DHA-1); details: no BLI, incubation 19 h; for MIC: Klebsiella pneumoniae, 6839, 19 h
Description: as §1, §2

K. pneumoniae 4248 = assay: BLI potentiation MIC, K. pneumoniae 4248 (SHV-11, CTX-M-15, TEM-1, OXA-1); details: no BLI, incubation 19 h; for MIC: Klebsiella pneumoniae, 4248, 19 h
Description: as §1, §2

K. pneumoniae MP14 = assay: BLI potentiation MIC, K. pneumoniae MP14; details: no BLI, incubation 19 h; for MIC: Klebsiella pneumoniae, MP14, 19 h
Description: as §1, §2

K. pneumoniae 4006 = assay: BLI potentiation MIC, K. pneumoniae 4006 (SHV-12, CTX-M-15, TEM-1, OXA-9); details: no BLI, incubation 19 h
Description: as §1, §2

K. pneumoniae 101 = assay: BLI potentiation MIC, K. pneumoniae 101; details: no BLI, incubation 19 h; for MIC: Klebsiella pneumoniae, 101, 19 h
Description: as §1, §2

K. pneumoniae 5576 = assay: BLI potentiation MIC, K. pneumoniae 5576 (SHV-11, CMY-2, DHA-1, TEM-1); details: no BLI, incubation 19 h; for MIC: Klebsiella pneumoniae, 5576, 19 h
Description: as §1, §2

K. pneumoniae KU2 = assay: BLI potentiation MIC, K. pneumoniae KU2; details: Klebsiella pneumoniae, no BLI, incubation 19 h
Description: as §1, §2

P. aeruginosa ARC3506 = assay: BLI potentiation MIC, P. aeruginosa ARC3506 (VEB-1, OXA-10, OprD−, AmpC); details: Pseudomonas aeruginosa, ARC3506, no BLI, incubation 19 h
Description: as §1, §2

K. pneumoniae 100 = assay: BLI potentiation MIC, K. pneumoniae 100; details: Klebsiella pneumoniae, 100, no BLI, incubation 19 h
Description: as §1, §2

K. pneumoniae NDM-506 = assay: BLI potentiation MIC, K. pneumoniae NDM-506; details: Klebsiella pneumoniae, NDM506, no BLI, incubation 19 h
Description: as §1, §2

P. aeruginosa ARC3514 = assay: BLI potentiation MIC, P. aeruginosa ARC3514 (KPC-2, OprD−, AmpC); details: no BLI, incubation 19 h; for MIC: Pseudomonas aeruginosa, ARC3514, 19 h
Description: as §1, §2

E. coli TOPDXA048 = assay: MIC of strain used for extraction of enzymes, E. coli TOPDXA048 (OXA-48, TEM-116, AmpC (NC_000913)); details: Escherichia coli
K. pneumoniae 5117 = assay: BLI potentiation MIC, K. pneumoniae 5117 (SHV-11, TEM-1); details: no BLI, incubation 19 h; for MIC: Klebsiella pneumoniae, 5117, 19 h
Description: as §1, §2

E. coli ECO200 = assay: MIC of strain used for extraction of enzymes, E. coli ECO200 (NDM-1, TEM-1, CTX-M-15, EC (AmpC), OXA-2 type); details: Escherichia coli
E. aerogenes K9911729 = assay: MIC of strain used for extraction of enzymes, E. aerogenes K9911729 (CMY-10, TEM-1, SHV-12, AmpC (DQ478697)); details: Klebsiella aerogenes, K9911729, no BLI
P. aeruginosa ATCC27853 = assay: BLI potentiation MIC (broth microdilution), P. aeruginosa ATCC27853 (PoxB, AmpC); details: no BLI, incubation 19 h; for MIC: Pseudomonas aeruginosa, ATCC27853, 19 h
Description: as §1, §2

K. pneumoniae CL5761 = assay: MIC of strain used for extraction of enzymes, K. pneumoniae CL5761 (KPC-3, TEM-216, SHV-5); details: Klebsiella pneumoniae, CL5761, no BLI
Description: as §1, §2

K. pneumoniae 5216 = assay: BLI potentiation MIC, K. pneumoniae 5216 (TEM-1A); details: no BLI, incubation 19 h; for MIC: Klebsiella pneumoniae, 5216, 19 h
Description: as §1, §2

K. pneumoniae 89 = assay: BLI potentiation MIC, K. pneumoniae 89; details: no BLI, incubation 19 h
Description: as §1, §2

K. pneumoniae 7586 = assay: BLI potentiation MIC, K. pneumoniae 7586; details: no BLI, incubation 19 h
Description: as §1, §2

[1] = read-out: MIC of Meropenem alone
[2] = read-out: MIC of LCB10-0200 alone

In the case of `C[C@@H](O)[C@H]1C(=O)N2C(C(=O)O)=C(S[C@@H]3CN[C@H](C(=O)N(C)C)C3)[C@H](C)[C@H]12` [Meropenem], the MIC (K. pneumoniae 6540; Klebsiella pneumoniae, 6540, 19 h, read-out: MIC of Meropenem alone) was 1 µg/mL, the “MIC of Meropenem alone” value (K. pneumoniae 6540) was 0.5 µg/mL and the MIC (E. coli K0519020; [1]) was 1 µg/mL. For the same compound, the MIC (K. pneumoniae 5971(KOX); [1]) was 64 µg/mL, the “MIC of Meropenem alone” value (K. pneumoniae 5971(KOX)) was 32 µg/mL and the MIC (K. pneumoniae 3784; [1]) was 2 µg/mL. For the same compound, the MIC (K. pneumoniae ATCC700603; Klebsiella pneumoniae, ATCC700603, 19 h, read-out: MIC of Meropenem alone) was 0.125 µg/mL, the “MIC of Meropenem alone” value (K. pneumoniae ATCC700603) was 0.25 µg/mL and the MIC (K. pneumoniae 6839; [1]) was 4 µg/mL. The “MIC of Meropenem alone” value (K. pneumoniae 6839) was 2 µg/mL, the MIC (K. pneumoniae 4248; [1]) was 0.125 µg/mL and the MIC (K. pneumoniae MP14; [1]) was over 64 µg/mL. The “MIC of Meropenem alone” value (K. pneumoniae MP14) was 64 µg/mL, the MIC (K. pneumoniae 4006; Klebsiella pneumoniae, 4006, 19 h, read-out: MIC of Meropenem alone) was 0.5 µg/mL and the “MIC of Meropenem alone” value (K. pneumoniae 4006) was 1 µg/mL. For the same compound, the MIC (K. pneumoniae 101; [1]) was over 64 µg/mL, the “MIC of Meropenem alone” value (K. pneumoniae 101) was 64 µg/mL and 32 µg/mL and the MIC (K. pneumoniae 5576; [1]) was 1 µg/mL. The “MIC of Meropenem alone” value (K. pneumoniae 5576) was 2 µg/mL, the MIC (K. pneumoniae KU2; [1]) was over 64 µg/mL and the MIC (P. aeruginosa ARC3506; [1]) was 64 µg/mL. It also gave an MIC (K. pneumoniae 100; [1]) of 4 µg/mL, an MIC (K. pneumoniae NDM-506; [1]) of over 64 µg/mL and an MIC (P. aeruginosa ARC3514; [1]) of over 64 µg/mL. The MIC (E. coli TOPDXA048; TOPDXA048, read-out: MIC of Meropenem alone) was 0.25 µg/mL, the MIC (K. pneumoniae 5117; [1]) was 8 µg/mL and the “MIC of Meropenem alone” value (K. pneumoniae 5117) was 4 µg/mL. For the same compound, the MIC (E. coli ECO200; ECO200, read-out: MIC of Meropenem alone) was over 64 µg/mL, the MIC (E. aerogenes K9911729; [1]) was 0.5 µg/mL and the MIC (P. aeruginosa ATCC27853; [1]) was 2 µg/mL. The MIC (K. pneumoniae CL5761; [1]) was over 64 µg/mL, the MIC (K. pneumoniae 5216; [1]) was 64 µg/mL and the “MIC of Meropenem alone” value (K. pneumoniae 5216) was 32 µg/mL.

`CC(C)(O/N=C(\C(=O)N[C@@H]1C(=O)N2C(C(=O)[O-])=C(C[n+]3cnc(N)c(NCCNC(=O)c4cc(=O)c(O)cn4O)c3)CS[C@H]12)c1nc(N)sc1Cl)C(=O)O` [LCB10-0200] was tested, and the MIC (E. coli K0519020; [2]) was 64 µg/mL, the MIC (K. pneumoniae 5971(KOX); [2]) was 32 µg/mL and the “MIC of LCB10-0200 alone” value (K. pneumoniae 5971(KOX)) was 64 μg/mL. The MIC (K. pneumoniae 3784; [2]) was 32 µg/mL, the “MIC of LCB10-0200 alone” value (K. pneumoniae 3784) was 64 μg/mL and the MIC (K. pneumoniae 6839; [2]) was 32 µg/mL. For the same compound, the “MIC of LCB10-0200 alone” value (K. pneumoniae 6839) was 16 μg/mL, the MIC (K. pneumoniae 4248; [2]) was 2 µg/mL and the “MIC of LCB10-0200 alone” value (K. pneumoniae 4248) was 4 μg/mL. For the same compound, the MIC (K. pneumoniae MP14; [2]) was 0.125 µg/mL, the “MIC of LCB10-0200 alone” value (K. pneumoniae MP14) was 0.25 μg/mL and the MIC (K. pneumoniae 101; [2]) was 16 µg/mL. For the same compound, the “MIC of LCB10-0200 alone” value (K. pneumoniae 101) was 32 μg/mL, the MIC (K. pneumoniae 5576; [2]) was over 64 µg/mL and the “MIC of LCB10-0200 alone” value (K. pneumoniae 5576) was 64 μg/mL and 32 μg/mL. The MIC (K. pneumoniae KU2; [2]) was 32 µg/mL, the MIC (P. aeruginosa ARC3506; [2]) was 2 µg/mL and the MIC (K. pneumoniae 100; [2]) was 0.0625 µg/mL. The MIC (K. pneumoniae NDM-506; [2]) was over 64 µg/mL, the MIC (P. aeruginosa ARC3514; [2]) was 0.25 µg/mL and the “MIC of LCB10-0200 alone” value (P. aeruginosa ARC3514) was 0.5 μg/mL. The MIC (K. pneumoniae 89; Klebsiella pneumoniae, 89, 19 h, read-out: MIC of LCB10-0200 alone) was 0.125 µg/mL, the “MIC of LCB10-0200 alone” value (K. pneumoniae 89) was 0.0625 μg/mL and the MIC (E. coli TOPDXA048; TOPDXA048, read-out: MIC of LCB10-0200 alone) was 0.25 µg/mL. The MIC (K. pneumoniae 5117; [2]) was 0.125 µg/mL, the “MIC of LCB10-0200 alone” value (K. pneumoniae 5117) was 0.25 μg/mL and the MIC (E. coli ECO200; ECO200, read-out: MIC of LCB10-0200 alone) was over 64 µg/mL. For the same compound, the MIC (E. aerogenes K9911729; [2]) was 2 µg/mL, the MIC (P. aeruginosa ATCC27853; [2]) was 0.25 µg/mL and the “MIC of LCB10-0200 alone” value (P. aeruginosa ATCC27853) was 0.5 μg/mL. For the same compound, the MIC (K. pneumoniae 7586; Klebsiella pneumoniae, 7586, 19 h, read-out: MIC of LCB10-0200 alone) was 4 µg/mL, the “MIC of LCB10-0200 alone” value (K. pneumoniae 7586) was 2 μg/mL and the MIC (K. pneumoniae CL5761; [2]) was 32 µg/mL. For the same compound, the MIC (K. pneumoniae 5216; [2]) was over 64 µg/mL and the “MIC of LCB10-0200 alone” value (K. pneumoniae 5216) was 64 μg/mL and 32 μg/mL.

From patent US10273235B2, “Compositions and methods for inhibiting β-lactamase” (LegoChem Biosciences, Inc., priority 2015, dated 2019)
